Assay results reported in patent US5874597A, “Certain aminosterol compounds and pharmaceutical compositions including these compounds” (priority 1995, dated 1999).
“Also recorded” adds a separate entry of the source.

Tested on: vitelline capillaries of chick embryo
Experiment: chick embryo vitelline capillary regression assay
Type: in vivo
Design: key to vitelline capillary regression: +: Vascular reactivity; 0: No vascular reactivity; +/-: Equivocal reactivity
Settings: 0.1 μg applied; 60 min
Protocol: Using the chick embryo vitelline capillaries assay, compounds were tested for their ability to induce capillary regression. Each compound was applied in 0.1 ml of 15% Ficol 400 and PBS onto the embryo, and vascular regression was assessed after 60 minutes.
The 3-day chick embryo consists of an embryonic disc from which numerous vessels emerge and return, forming a "figure 8"-shaped structure--the embryo in the center with vascular loops extending outward over both poles. […] Following a lag period of around 15 minutes, the constriction of continuity between capillary and secondary vessels, generally on the "venous" side, was observed. Continued pulsatile blood flow progressed, resulting in a "swelling" of the blind tube, followed by a pinching off of the remaining connection and formation of an enclosed vascular sac resembling a "blood island." This process progressed until only the largest vessels remained intact.
`COC(=O)CC[C@@H](C)[C@H]1CC[C@H]2[C@@H]3[C@H](O)C[C@@H]4C[C@@H](NCCCNCCCCNCCCN)CC[C@]4(C)[C@H]3CC[C@]12C` [Compound 411] showed a vitelline capillary regression of 0.

Same assay, conditions: Table II
With `CC(C)CCCC(C)[C@H]1CCC2C3CC[C@H]4C[C@@H](NCCCNCCCCN)CC[C@]4(C)C3CC[C@@]21C` (stereo partly shown) the “Chick embryo diss. assay, Minimum Effective Concentration” value (shortened to “Chick embryo diss. assay”) was greater than 10 µg.
With `CC(CCC(=O)O)[C@H]1CCC2C3CC[C@H]4C[C@H](NCCCNCCCCN)CC[C@]4(C)C3CC[C@@]21C` (stereo partly shown) the “Chick embryo diss. assay” value was greater than 10 µg.
With `CC(CCC(=O)O)[C@H]1CCC2C3CC[C@H]4C[C@@H](NCCCNCCCCN)CC[C@]4(C)C3CC[C@@]21C` (stereo partly shown) the “Chick embryo diss. assay” value was 0.001 µg.
With `CC(C)CCCC(C)[C@H]1CCC2C3C(CC[C@@]21C)[C@@]1(C)CC[C@@H](NCCCNCCCCN)C[C@@H]1C[C@H]3O` (stereo partly shown) the “Chick embryo diss. assay” value was greater than 10 µg.
With `CC(C)CCCC(C)[C@H]1CCC2C3C(CC[C@@]21C)[C@@]1(C)CC[C@H](NCCCNCCCCN)C[C@@H]1C[C@H]3O` (stereo partly shown) the “Chick embryo diss. assay” value was 1 to 10 µg.
For `COC(=O)CCC(C)[C@H]1CCC2C3C(CC[C@@]21C)[C@@]1(C)CC[C@H](NCCCNCCCCNCCCN)C[C@@H]1C[C@H]3O` (stereo partly shown), the “Chick embryo diss. assay” value was 10 µg.
In the case of `CC(CCC(=O)O)[C@H]1CCC2C3C(CC[C@@]21C)[C@@]1(C)CC[C@H](NCCCNCCCCNCCCN)C[C@@H]1C[C@H]3O` (stereo partly shown), the “Chick embryo diss. assay” value is reported as 1 µg.
With `COC(=O)CCC(C)[C@H]1CCC2C3C(CC[C@@]21C)[C@@]1(C)CC[C@H](NCCN)C[C@H]1C[C@H]3O` (stereo partly shown) the “Chick embryo diss. assay” value was greater than 1 µg.
In the case of `COC(=O)CCC(C)[C@H]1CCC2C3C(CC[C@@]21C)[C@@]1(C)CC[C@@H](NCCN)C[C@H]1C[C@H]3O` (stereo partly shown), the “Chick embryo diss. assay” value is reported as 0.01 µg.
With `CC(CCC(=O)O)[C@H]1CCC2C3C(CC[C@@]21C)[C@@]1(C)CC[C@H](NCCCNCCCCN)C[C@@H]1C[C@H]3O` (stereo partly shown) the “Chick embryo diss. assay” value was greater than 10 µg.
In the case of `CC(C)CCCC(C)[C@H]1CCC2C3CC[C@H]4C[C@H](NCCCN5CCCCN=C5N)CC[C@]4(C)C3CC[C@@]21C` (stereo partly shown), the “Chick embryo diss. assay” value is reported as greater than 10 µg.
In the case of `COC(=O)CCC(C)[C@H]1CCC2C3CC[C@H]4C[C@@H](NCCCNCCCCNCCCN)CC[C@]4(C)C3CC[C@@]21C` (stereo partly shown), the “Chick embryo diss. assay” value is reported as greater than 1 µg.
With `COC(=O)CCC(C)[C@H]1CCC2C3C[C@@H](O)[C@H]4C[C@@H](NCCCNCCCCNCCCN)CC[C@]4(C)C3CC[C@@]21C` (stereo partly shown) the “Chick embryo diss. assay” value was 1 µg.
In the case of `COC(=O)CCC(C)[C@H]1CCC2C3C[C@@H](O)[C@H]4C[C@H](NCCN)CC[C@]4(C)C3CC[C@@]21C` (stereo partly shown), the “Chick embryo diss. assay” value is reported as greater than 1 µg.
For `COC(=O)CCC(C)[C@H]1CCC2C3C[C@@H](O)[C@H]4C[C@@H](NCCN)CC[C@]4(C)C3CC[C@@]21C` (stereo partly shown), the “Chick embryo diss. assay” value was greater than 1 µg.
For `CC(CCC(=O)O)[C@H]1CCC2C3C[C@@H](O)[C@H]4C[C@@H](NCCN)CC[C@]4(C)C3CC[C@@]21C` (stereo partly shown), the “Chick embryo diss. assay” value was 1 µg.
In the case of `COC(=O)CCC(C)[C@H]1CCC2C3CC[C@@H]4C[C@H](NCCCNCCCCNCCCN)CC[C@]4(C)C3CC[C@@]21C` (stereo partly shown), the “Chick embryo diss. assay” value is reported as greater than 1 µg.
For `COC(=O)CCC(C)[C@H]1CCC2C3C(CC[C@@]21C)[C@@]1(C)CC[C@H](NCCCNCCCCNCCCN)C[C@H]1C[C@H]3O` (stereo partly shown), the “Chick embryo diss. assay” value was greater than 1 µg.
With `CC(CCC(=O)O)[C@H]1CCC2C3C(CC[C@@]21C)[C@@]1(C)CC[C@@H](NCCCNCCCCNCCCN)C[C@H]1C[C@H]3O` (stereo partly shown) the “Chick embryo diss. assay” value was 1 µg.
For `CC(CCC(=O)O)[C@H]1CCC2C3C(CC[C@@]21C)[C@@]1(C)CC[C@H](NCCCNCCCCNCCCN)C[C@H]1C[C@H]3O` (stereo partly shown), the “Chick embryo diss. assay” value was greater than 1 µg.
With `CC(CCC(=O)O)[C@H]1CCC2C3C(CC[C@@]21C)[C@@]1(C)CC[C@@H](NCCN)C[C@H]1C[C@H]3O` (stereo partly shown) the “Chick embryo diss. assay” value was greater than 1 µg.
With `CC(CCC(=O)O)[C@H]1CCC2C3C(CC[C@@]21C)[C@@]1(C)CC[C@H](NCCN)C[C@H]1C[C@H]3O` (stereo partly shown) the “Chick embryo diss. assay” value was greater than 1 µg.
In the case of `COC(=O)CCC(C)[C@H]1CCC2C3CC[C@@H]4C[C@H](NCCN)CC[C@]4(C)C3C[C@H](O)[C@@]21C` (stereo partly shown), the “Chick embryo diss. assay” value is reported as greater than 1 µg.
In the case of `CC(COS(=O)(=O)O)C(=O)CCC(C)[C@H]1CCC2C3C(CC[C@@]21C)[C@@]1(C)CC[C@H](NCCCNCCCCN)C[C@@H]1C[C@H]3O` (stereo partly shown), the “Chick embryo diss. assay” value is reported as greater than 10 µg.

Same assay, conditions: in vivo
For `CC(COS(=O)(=O)O)C(=O)CC[C@@H](C)[C@H]1CC[C@H]2[C@@H]3[C@H](O)C[C@H]4C[C@@H](NCCCNCCCCN)CC[C@]4(C)[C@H]3CC[C@]12C` (single isomer, unassigned) [Compound 1360], the “effect on vitelline capillaries / chick embryo” value was “the blood circulating through the embryonic vessels exhibited a brighter red color”.
In the case of `CC(C)CCC[C@@H](C)[C@H]1CC[C@H]2[C@@H]3CC[C@H]4C[C@@H](NCCCNCCCCNCCCN)CC[C@]4(C)[C@H]3CC[C@]12C` [Compound 353], the “effect on vitelline capillaries / chick embryo” value is reported as “no effect on the chick embryo capillary bed”.
With `C[C@H](CCC(=O)O)[C@H]1CC[C@H]2[C@@H]3[C@H](O)C[C@@H]4C[C@@H](NCCN)CC[C@]4(C)[C@H]3CC[C@]12C` [Compound 415] the “effect on vitelline capillaries / chick embryo” value was “especially active”.

Tested on: human melanoma
Experiment: effect on growth of human melanoma (time course, apoptosis)
Type: cell-based
Settings: not given
In the case of `CC(C)CCC[C@@H](C)[C@H]1CC[C@H]2[C@@H]3CC[C@H]4C[C@@H](NCCCNCCCCNCCCN)CC[C@]4(C)[C@H]3CC[C@]12C` [Compound 353], the “mechanism of cell death” value is reported as “apoptotic cell death has been induced”.

Same assay, conditions: FIG. 17A
In the case of `CC(C)CCC[C@@H](C)[C@H]1CC[C@H]2[C@@H]3CC[C@H]4C[C@@H](NCCCNCCCCNCCCN)CC[C@]4(C)[C@H]3CC[C@]12C` [Compound 353], the “time dependence of effect on growth of melanoma” value is reported as “most pronounced over 48 hours”.

Tested on: Xenopus tadpole (stage 59-60)
Experiment: Xenopus tadpole assay
Type: in vivo, Xenopus laevis
Settings: 10 μg/ml; about 1 hour
For `CC(COS(=O)(=O)O)C(=O)CC[C@@H](C)[C@H]1CC[C@H]2[C@@H]3[C@H](O)C[C@H]4C[C@@H](NCCCNCCCCN)CC[C@]4(C)[C@H]3CC[C@]12C` (single isomer, unassigned) [Compound 1360], the “tadpole response” value was “Swelling and lysis of certain erythrocytes occurred; also recorded: extensive vasocclusion occurred within 60 minutes throughout the tail”.

Same assay, conditions: in vivo
In the case of `C[C@H](CCC(=O)O)[C@H]1CC[C@H]2[C@@H]3[C@H](O)C[C@@H]4C[C@H](NCCN)CC[C@]4(C)[C@H]3CC[C@]12C` [Compound 414], the “pharmacologic similarity in tadpole assay” value is reported as “pharmacologic activity similar to Fraction 1”.
With `CC(C)CCC[C@@H](C)[C@H]1CC[C@H]2[C@@H]3[C@H](O)C[C@H]4C[C@H](N)CC[C@]4(C)[C@H]3CC[C@]12C` [Compound 1363] the “pharmacologic similarity in tadpole assay” value was “pharmacologic activity similar to Fraction 1”.

Tested on: NHE3
Experiment: not given
Settings: cited from earlier work
For `N=C(N)NC(=O)c1nc(Cl)c(N)nc1N` [Amiloride, amiloride], the “effect on NHE3 kinetics (Km, Vmax)” value is given as “affected only Vmax”.
